In general, IC50 refers to the concentration that gives 50% inhibition.

The first assay concerns the target T1, human C5a receptor (CD88) (Homo sapiens, UniProt P21730).
T1 construct: expressed in transfected cells; host or cells: rat basophilic leukemia (RBL) cells, stably transfected
T1 sequence (P21730 1-350): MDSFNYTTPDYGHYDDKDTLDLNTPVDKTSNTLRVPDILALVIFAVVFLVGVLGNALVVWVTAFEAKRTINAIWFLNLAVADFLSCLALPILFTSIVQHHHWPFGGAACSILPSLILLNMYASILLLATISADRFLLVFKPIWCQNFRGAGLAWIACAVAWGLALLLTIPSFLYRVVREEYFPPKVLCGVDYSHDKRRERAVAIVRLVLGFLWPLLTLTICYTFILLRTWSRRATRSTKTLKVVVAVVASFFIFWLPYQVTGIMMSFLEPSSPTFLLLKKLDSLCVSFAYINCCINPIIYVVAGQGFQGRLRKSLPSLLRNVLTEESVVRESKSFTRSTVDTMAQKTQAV
Briefly: C5a induced enzyme (glucosaminidase) release assay in RBL cells expressing the human C5a receptor (Example 28). It counts as cell-based. To be noted: IC50 for the inhibition of C5a induced enzyme release, RBL cells with human C5aR. As to the method: Basophile leukemia cells from rats (RBL), which express the human C5a receptor (CD88), are cultivated in DMEM with 10% fetal calf serum, 100 U/ml penicillin, 100 μg/ml streptomycin and 2 mM glutamin (all constituents are from Biochrome, Berlin) at 37° C. and with 10% CO2 until a confluent layer is obtained. All following details refer to a tissue culture flask with 75 cm^2 surface. The used up medium is removed. The cells are washed with 10 ml PBS (Dulbecco's PBS, Biochrome) and then covered with 3 ml cell dissociation solution (CDS, Sigma). The cells are incubated for 1 minute at room temperature. Then the CDS is removed and the cells are incubated for further 10-15 minutes at 37° C. to detach the cells completely from the flask. 20 μl solution of the compound to be testet are used in the assay. […] The dilution series are prepared in ⅓ or ½ steps. […] The cells are counted and centrifuged (200 g, 10 min). The cell pellet is taken up with pre-heated HAG-CM, and the cell density is adjusted to 2×10^6 Zellen/ml. The cells are incubated for 5 minutes at 37° C. 2.7 μl of a cytochalasin B solution (1000 μg/ml in DMSO, Sigma) are added per ml cell suspension. The Zellen are incubated for another 3 min at 37° C. Then, 75 μl of the cell suspension are added to the 20 μl solution containing the compounds to be tested. […] The cells are again incubated for 10 minutes at 37° C. […] After this the plates are put on ice and centrifuged for 3 minutes at 1200×g and 4° C. […] The plate is incubated for 1 hour at 37° C. […] The IC50 value is determined by solving the four parameter equation y=((A−D)/(1+(x/C)^B))+D.
In turn, `COc1ccc2c(c1)C(C(=O)N(Cc1ccc(N(C)C)cc1)c1ccc(C(C)C)cc1)CCC2` (stereo not drawn) [compound 12, 7-methoxy-1,2,3,4-tetrahydro-naphthalin-1-carbonsäure (4-dimethylamino-benzyl)-(4-isopropyl-phenyl)-amide, reference compound] gave an IC50 of 0.089 µM.

The same assay, now with this note: RBL cells with human C5aR; read-out: IC50 for the inhibition of C5a induced enzyme release.
As for `CCc1c(N)cc(Cl)c(CC)c1NC(=O)N(c1ccc(C(C)C)cc1)[C@@H](C)c1ccc(C)cc1` [(S)-3-(3-Amino-5-chlor-2,6-diethyl-phenyl)-1-(4-isopropyl-ph], the IC50 was determined as 0.032 µM.

As to `CCc1c(N)cc(Cl)c(CC)c1NC(=O)N(Cc1ccc(Cl)nc1)c1ccc(C(C)C)cc1`, the IC50 is 0.062 µM.

Still in this assay, the particulars now being: inhibition of C5a induced enzyme release, RBL cells with human C5aR; read-out: Activity-range (antagonistic activity, IC50 enzyme release).
As for `CCc1c(N)cc(Cl)c(CC)c1NC(=O)N(Cc1ccccc1OC)c1ccc(C(C)C)cc1` [compound 62, 3-(3-amino-5-chloro-2,6-diethyl-phenyl)-1-(4-isopropyl-phenyl)-1-(2-methoxy-benzyl)-urea], the IC50 was 0.2 to 5 µM.

`CCc1ccc(N(Cc2ccc(C#N)cc2)C(=O)Nc2c(CC)c(N)cc(Cl)c2CC)cc1` [compound 113, 3-(3-amino-5-chloro-2,6-diethyl-phenyl)-1-(4-cyano-benzyl)-1-(4-ethyl-phenyl)-urea]: the IC50 was in the range of 0.2 to 5 µM.

Regarding `CCNc1ccc(CC)c(NC(=O)N(Cc2ccc(OC)cc2)c2ccc(C(C)C)cc2)c1CC` [compound 142, 3-(2,6-diethyl-3-ethylamino-phenyl)-1-(4-isopropyl-phenyl)-1-(4-methoxy-benzyl)-urea], the IC50 is above 5 µM.

For `CCc1c(N)cc(Cl)c(CC)c1NC(=O)N(Cc1cnc(C)cn1)c1ccc(C(C)C)cc1` [compound 75, 3-(3-amino-5-chloro-2,6-diethyl-phenyl)-1-(4-isopropyl-phenyl)-1-(5-methyl-pyrazin-2-ylmethyl)-urea], the IC50 lay within 0.06 to 0.2 µM.

Turning to `CCc1c(N)cc(Cl)c(CC)c1NC(=O)N(Cc1cnc(OC)nc1OC)c1ccc(C(C)C)cc1` [compound 77, 3-(3-amino-5-chloro-2,6-diethyl-phenyl)-1-(2,4-dimethoxy-pyrimidin-5-ylmethyl)-1-(4-isopropyl-phenyl)-urea], the IC50 fell in the range of 0.2 to 5 µM.

As for `CCc1ccc(N)c(CC)c1NC(=O)N(CC1CCCCC1)c1ccc(C(C)C)cc1` [compound 61, 3-(3-amino-2,6-diethyl-phenyl)-1-cyclohexylmethyl-1-(4-isopropyl-phenyl)-urea], the IC50 was 0.2 to 5 µM.

For `CCc1c(N)cc(Cl)c(CC)c1NC(=O)N(Cc1ccc(Cl)cc1)c1ccc(OC(F)F)cc1` [compound 117, 3-(3-amino-5-chloro-2,6-diethyl-phenyl)-1-(4-chloro-benzyl)-1-(4-difluoromethoxy-phenyl)-urea], the IC50 was in the range of 0.2 to 5 µM.

Consider `CCNc1ccc(N(Cc2ccc(Cl)cc2)C(=O)Nc2c(CC)c(N)cc(Cl)c2CC)cc1` [compound 136, 3-(3-amino-5-chloro-2,6-diethyl-phenyl)-1-(4-chloro-benzyl)-1-(4-ethylamino-phenyl)-urea], for which the IC50 was below 0.06 µM.

As to `CCc1c(N)cc(Cl)c(CC)c1NC(=O)N(Cc1ccc(C(F)(F)F)nc1)c1ccc(C(C)C)cc1` [compound 87, 3-(3-amino-5-chloro-2,6-diethyl-phenyl)-1-(4-isopropyl-phenyl)-1-(6-trifluoromethyl-pyridin-3-ylmethyl)-urea], the IC50 was 0.2 to 5 µM.

With `CCc1c(N)cc(Cl)c(CC)c1NC(=O)N(Cc1ccc(Cl)cc1)c1cccc2ccccc12` [compound 108, 3-(3-amino-5-chloro-2,6-diethyl-phenyl)-1-(4-chloro-benzyl)-1-naphthaline-1-yl-urea], the IC50 lay in the range of 0.2 to 5 µM.

Regarding `CCc1c(N)cc(Cl)c(CC)c1NC(=O)N(Cc1ccc2c(c1)CCO2)c1ccc(C(C)C)cc1` [compound 65, 3-(3-amino-5-chloro-2,6-diethyl-phenyl)-1-(2,3-dihydro-benzofuran-5-ylmethyl)-1-(4-isopropyl-phenyl)-urea], the half-inhibitory concentration (IC50) lay within 0.06 to 0.2 µM.

Turning to `CCc1c(N)cc(Cl)c(CC)c1NC(=O)N(Cc1ccc(OC)cc1F)c1ccc(C(C)C)cc1` [compound 58, 3-(3-amino-5-chloro-2,6-diethyl-phenyl)-1-(2-fluoro-4-methoxy-benzyl)-1-(4-isopropyl-phenyl)-urea], the 50% inhibitory concentration (IC50) lay in the range of 0.2 to 5 µM.

For `CCc1c(N)cc(Cl)c(CC)c1NC(=O)N(Cc1ccc(C)cc1)c1ccc(C(C)C)cc1` [compound 34, 3-(3-amino-5-chloro-2,6-diethyl-phenyl)-1-(4-isopropyl-phenyl)-1-(4-methyl-benzyl)-urea], the IC50 is 0.06 to 0.2 µM.

With `COc1ccc(CN(C(=O)Nc2c(C(C)C)ccc(NC(C)=O)c2C(C)C)c2ccc(C(C)C)cc2)cc1` [compound 27, N-{2,4-diisopropyl-3-[3-(4-isopropyl-phenyl)-3-(4-methoxy-benzyl)-ureido]-phenyl}-acetamide], the IC50 is above 5 µM.

For `CCc1c(N)cc(Cl)c(CC)c1NC(=O)N(c1ccc(OC)cc1)[C@@H](C)c1ccc(Cl)cc1` [compound 92, (S)-3-(3-amino-5-chloro-2,6-diethyl-phenyl)-1-[1-(4-chloro-phenyl)-ethyl]-1-(4-methoxy-phenyl)-urea], the concentration for half-maximal inhibition (IC50) was 0.06 to 0.2 µM.

Consider `CCc1ccc(N(Cc2ccc(F)cc2)C(=O)Nc2c(CC)c(N)cc(Cl)c2CC)cc1` [compound 96, 3-(3-amino-5-chloro-2,6-diethyl-phenyl)-1-(4-ethyl-phenyl)-1-(4-fluoro-benzyl)-urea], for which the IC50 lay in the range of 0.06 to 0.2 µM.

As to `CCc1c(N)cc(Cl)c(CC)c1NC(=O)N(Cc1ccc(Cl)cc1)c1ccc(OC)c2nc(C)c(C)nc12` [compound 130, 3-(3-amino-5-chloro-2,6-diethyl-phenyl)-1-(4-chloro-benzyl)-1-(8-methoxy-2,3-dimethyl-chinoxalin-5-yl)-urea], the IC50 is 0.2 to 5 µM.

Turning to `CCc1c(N)cc(Cl)c(CC)c1NC(=O)N(Cc1ccc(Cl)cc1)c1ccc(OC)c2ccccc12` [compound 115, 3-(3-amino-5-chloro-2,6-diethyl-phenyl)-1-(4-chloro-benzyl)-1-(4-methoxy-naphthaline-1-yl)-urea], the IC50 lay in the range of 0.06 to 0.2 µM.

In the case of `COc1ccc2c(c1)C(C(=O)N(Cc1ccc(N(C)C)cc1)c1ccc(C(C)C)cc1)CCC2` (stereo not drawn) [compound 12, 7-methoxy-1,2,3,4-tetrahydro-naphthalin-1-carbonsäure (4-dimethylamino-benzyl)-(4-isopropyl-phenyl)-amide, reference compound], the IC50 fell in the range of 0.06 to 0.2 µM.

Take `CCc1c(N)cc(Cl)c(CC)c1NC(=O)N(c1ccc(SC)cc1)[C@@H](C)c1ccc(Cl)cc1` [compound 83, (S)-3-(3-amino-5-chloro-2,6-diethyl-phenyl)-1-[1-(4-chloro-phenyl)-ethyl]-1-(4-methylsulfanyl-phenyl)-urea]: the IC50 fell in the range of 0.06 to 0.2 µM.

As for `CCc1ccc(N(Cc2ccc3c(c2)ncn3C)C(=O)Nc2c(CC)c(N)cc(Cl)c2CC)cc1` [compound 118, 3-(3-amino-5-chloro-2,6-diethyl-phenyl)-1-(4-ethyl-phenyl)-1-(1-methyl-1H-benzoimidazol-5-ylmethyl)-urea], the IC50 was 0.2 to 5 µM.

For the compound `CCc1ccc(N(Cc2ccc(C)nc2)C(=O)Nc2c(CC)ccc(N)c2CC)cc1` [compound 107, 3-(3-amino-2,6-diethyl-phenyl)-1-(4-ethyl-phenyl)-1-(6-methyl-pyridin-3-ylmethyl)-urea], the IC50 fell in the range of 0.2 to 5 µM.

For `CCc1c(N)cc(Cl)c(CC)c1NC(=O)N(Cc1ccc(Cl)cc1)c1ccc(NC(C)=O)cc1` [compound 140, N-{4-[3-(3-amino-5-chloro-2,6-diethyl-phenyl)-1-(4-chloro-benzyl)-ureido]-phenyl}-acetamide], the IC50 was in the range of 0.2 to 5 µM.

Regarding `CCc1c(N)cc(Cl)c(CC)c1NC(=O)N(Cc1ccccc1)c1ccc(C(C)C)cc1` [compound 43, 3-(3-amino-5-chloro-2,6-diethyl-phenyl)-1-benzyl-1-(4-isopropyl-phenyl)-urea], the IC50 fell in the range of 0.2 to 5 µM.

On to `CCc1ccc(N(Cc2ccc(C)cc2)C(=O)Nc2c(CC)c(N)cc(Cl)c2CC)cc1` [compound 53, 3-(3-amino-5-chloro-2,6-diethyl-phenyl)-1-(4-ethyl-phenyl)-1-(4-methyl-benzyl)-urea], for which the IC50 was 0.06 to 0.2 µM.

For the compound `CCc1c(N)cc(Cl)c(CC)c1NC(=O)N(Cc1ccc(Cl)cc1)c1ccc(C(C)C)cc1` [compound 72, 3-(3-amino-5-chloro-2,6-diethyl-phenyl)-1-(4-chlor-benzyl)-1-(4-isopropyl-phenyl)-urea], the IC50 lay in the range of 0.06 to 0.2 µM.

Regarding `CCc1ccc(N)c(CC)c1NC(=O)N(c1ccc(C(C)C)cc1)[C@@H](C)c1ccc(OC)cc1` [compound 71, (S)-3-(3-amino-2,6-diethyl-phenyl)-1-(4-isopropyl-phenyl)-1-[1-(4-methoxy-phenyl)-ethyl]-urea], the IC50 was in the range of 0.06 to 0.2 µM.

These data come from patent US8071810B2, “C5a receptor antagonists” (Jerini AG, priority 2005, dated 2011).
